The values below come from PMC5469273, “Discovery of Novel Small-Molecule Inhibitors of LIM Domain Kinase for Inhibiting HIV-1” (Journal of Virology, 2017).

Test [1] concerns the target Aurora A (Homo sapiens, UniProt O14965). As to the kind of experiment: Kinase profiling (Reaction Biology): Aurora A.
The target in test [2] is EPHA3 (Homo sapiens, UniProt P29320). As to the kind of experiment: Kinase profiling (Reaction Biology): EPHA3.
Test [3] deals with PKCa (Homo sapiens, UniProt P17252). As to the kind of experiment: Kinase profiling (Reaction Biology): PKCa.
Test [4] addresses c-Kit (Homo sapiens, UniProt P10721). Kind of test: Kinase profiling (Reaction Biology): c-Kit.
The target in test [5] is PLK2 (Homo sapiens, UniProt Q9NYY3). Kind of test: Kinase profiling (Reaction Biology): PLK2.
Test [6] concerns HIV-1(NL4-3). It is filed as cell-based.
For test [7], the target named is TAOK1 (Homo sapiens, UniProt Q7L7X3). Kind of test: Kinase profiling (Reaction Biology): TAOK1.
Sequence of TAOK1 (Q7L7X3 whole entry): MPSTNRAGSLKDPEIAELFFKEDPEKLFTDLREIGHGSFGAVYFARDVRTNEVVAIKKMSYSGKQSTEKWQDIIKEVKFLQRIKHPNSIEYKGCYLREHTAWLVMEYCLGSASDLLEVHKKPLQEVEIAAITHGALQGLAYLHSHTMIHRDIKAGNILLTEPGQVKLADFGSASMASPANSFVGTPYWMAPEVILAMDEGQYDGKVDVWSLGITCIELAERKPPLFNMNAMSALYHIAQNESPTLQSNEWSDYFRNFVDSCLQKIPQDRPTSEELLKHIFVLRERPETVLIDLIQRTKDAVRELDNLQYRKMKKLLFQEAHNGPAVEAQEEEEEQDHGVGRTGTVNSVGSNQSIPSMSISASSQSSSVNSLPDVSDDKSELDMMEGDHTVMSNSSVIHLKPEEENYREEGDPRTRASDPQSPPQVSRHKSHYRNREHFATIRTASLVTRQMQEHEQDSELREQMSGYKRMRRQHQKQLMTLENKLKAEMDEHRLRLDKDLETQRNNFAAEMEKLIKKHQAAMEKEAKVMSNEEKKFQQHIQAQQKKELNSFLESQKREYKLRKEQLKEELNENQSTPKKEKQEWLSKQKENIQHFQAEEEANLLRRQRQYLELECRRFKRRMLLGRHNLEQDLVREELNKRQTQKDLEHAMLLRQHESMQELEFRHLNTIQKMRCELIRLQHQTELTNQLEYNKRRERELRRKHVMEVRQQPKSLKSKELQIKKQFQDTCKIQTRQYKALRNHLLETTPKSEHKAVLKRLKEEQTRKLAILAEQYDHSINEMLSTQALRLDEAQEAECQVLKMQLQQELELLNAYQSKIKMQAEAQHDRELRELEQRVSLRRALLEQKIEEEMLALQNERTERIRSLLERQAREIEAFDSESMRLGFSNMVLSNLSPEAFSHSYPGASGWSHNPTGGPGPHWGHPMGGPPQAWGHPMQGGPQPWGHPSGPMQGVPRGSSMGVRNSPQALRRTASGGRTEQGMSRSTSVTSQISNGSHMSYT
The target of test [8] is JNK1 (Homo sapiens, UniProt P45983). Kind of test: Kinase profiling (Reaction Biology): JNK1.
Sequence of JNK1 (P45983 whole entry): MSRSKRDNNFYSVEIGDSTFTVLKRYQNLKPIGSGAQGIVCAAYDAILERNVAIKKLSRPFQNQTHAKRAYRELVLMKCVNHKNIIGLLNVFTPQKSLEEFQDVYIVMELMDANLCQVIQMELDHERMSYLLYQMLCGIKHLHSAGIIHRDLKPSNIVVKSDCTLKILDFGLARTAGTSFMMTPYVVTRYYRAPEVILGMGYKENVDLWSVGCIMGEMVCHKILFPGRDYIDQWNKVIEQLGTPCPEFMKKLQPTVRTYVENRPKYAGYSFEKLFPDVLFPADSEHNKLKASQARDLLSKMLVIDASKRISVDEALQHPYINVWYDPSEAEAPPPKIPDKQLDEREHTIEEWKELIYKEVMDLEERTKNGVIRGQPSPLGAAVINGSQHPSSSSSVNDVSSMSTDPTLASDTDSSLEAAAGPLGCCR

Sequence of Aurora A (O14965 whole entry): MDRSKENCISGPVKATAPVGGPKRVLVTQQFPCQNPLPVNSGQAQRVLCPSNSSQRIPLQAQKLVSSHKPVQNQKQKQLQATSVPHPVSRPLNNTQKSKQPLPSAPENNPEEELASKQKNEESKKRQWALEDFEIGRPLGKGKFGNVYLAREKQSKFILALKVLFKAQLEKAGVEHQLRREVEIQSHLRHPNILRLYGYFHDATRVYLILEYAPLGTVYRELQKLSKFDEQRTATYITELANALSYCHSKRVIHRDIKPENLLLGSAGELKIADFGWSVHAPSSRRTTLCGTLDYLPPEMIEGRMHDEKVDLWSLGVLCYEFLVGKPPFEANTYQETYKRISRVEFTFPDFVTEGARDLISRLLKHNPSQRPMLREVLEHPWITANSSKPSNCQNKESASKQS
Sequence of c-Kit (P10721 26-976): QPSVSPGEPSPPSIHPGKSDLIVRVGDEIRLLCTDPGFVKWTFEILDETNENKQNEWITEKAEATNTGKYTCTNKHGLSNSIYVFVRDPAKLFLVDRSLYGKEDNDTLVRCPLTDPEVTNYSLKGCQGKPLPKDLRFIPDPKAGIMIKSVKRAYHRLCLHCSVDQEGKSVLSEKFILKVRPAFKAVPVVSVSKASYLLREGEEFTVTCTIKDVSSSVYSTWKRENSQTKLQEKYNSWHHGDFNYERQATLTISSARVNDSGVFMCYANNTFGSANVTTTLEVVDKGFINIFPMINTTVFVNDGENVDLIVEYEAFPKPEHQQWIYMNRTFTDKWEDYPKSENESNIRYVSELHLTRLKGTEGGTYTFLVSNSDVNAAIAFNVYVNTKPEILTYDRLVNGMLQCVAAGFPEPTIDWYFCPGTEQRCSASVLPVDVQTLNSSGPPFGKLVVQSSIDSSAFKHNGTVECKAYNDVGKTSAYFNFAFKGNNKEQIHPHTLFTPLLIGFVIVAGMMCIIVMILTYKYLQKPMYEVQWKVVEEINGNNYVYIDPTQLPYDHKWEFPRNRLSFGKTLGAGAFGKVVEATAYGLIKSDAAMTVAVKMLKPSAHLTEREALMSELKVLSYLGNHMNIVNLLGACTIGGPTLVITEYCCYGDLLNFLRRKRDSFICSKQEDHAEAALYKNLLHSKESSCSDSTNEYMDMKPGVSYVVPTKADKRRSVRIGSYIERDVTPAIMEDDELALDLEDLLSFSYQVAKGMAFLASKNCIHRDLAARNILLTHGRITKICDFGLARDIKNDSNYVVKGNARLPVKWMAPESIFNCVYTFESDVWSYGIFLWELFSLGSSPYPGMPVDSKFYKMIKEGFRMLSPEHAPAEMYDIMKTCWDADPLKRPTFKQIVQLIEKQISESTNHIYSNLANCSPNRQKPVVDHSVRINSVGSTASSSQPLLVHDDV
Sequence of EPHA3 (P29320 21-983): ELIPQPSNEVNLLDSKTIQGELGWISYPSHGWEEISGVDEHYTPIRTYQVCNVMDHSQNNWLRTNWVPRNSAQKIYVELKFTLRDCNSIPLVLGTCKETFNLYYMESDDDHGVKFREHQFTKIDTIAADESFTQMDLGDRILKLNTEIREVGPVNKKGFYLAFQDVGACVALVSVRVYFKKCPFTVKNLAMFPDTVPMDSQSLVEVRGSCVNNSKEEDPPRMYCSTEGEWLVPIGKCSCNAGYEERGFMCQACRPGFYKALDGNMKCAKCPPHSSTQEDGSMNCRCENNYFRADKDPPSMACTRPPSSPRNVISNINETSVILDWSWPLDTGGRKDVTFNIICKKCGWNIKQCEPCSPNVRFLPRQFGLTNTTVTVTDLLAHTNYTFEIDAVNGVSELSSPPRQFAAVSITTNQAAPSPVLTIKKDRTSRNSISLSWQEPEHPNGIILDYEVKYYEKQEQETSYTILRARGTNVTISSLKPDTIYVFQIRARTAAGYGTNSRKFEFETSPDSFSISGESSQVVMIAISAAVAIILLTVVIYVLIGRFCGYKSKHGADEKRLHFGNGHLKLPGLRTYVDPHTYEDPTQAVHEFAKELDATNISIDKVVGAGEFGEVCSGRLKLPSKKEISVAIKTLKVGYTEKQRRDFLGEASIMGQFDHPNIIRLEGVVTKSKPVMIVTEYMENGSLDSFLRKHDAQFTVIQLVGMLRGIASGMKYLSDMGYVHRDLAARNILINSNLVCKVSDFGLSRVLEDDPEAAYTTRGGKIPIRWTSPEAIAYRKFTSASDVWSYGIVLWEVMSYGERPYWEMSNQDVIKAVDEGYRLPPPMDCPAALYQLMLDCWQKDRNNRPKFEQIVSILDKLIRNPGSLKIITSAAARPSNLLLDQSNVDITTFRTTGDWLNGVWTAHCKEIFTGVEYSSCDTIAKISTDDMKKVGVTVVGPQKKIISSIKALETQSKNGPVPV

Regarding `COC(=O)c1ccc2[nH]c(C3CCN(c4ncnc5[nH]cc(Cl)c45)CC3)nc2c1` [Compound R10015, Methyl 2-(1-(5-chloro-7H-pyrrolo[2,3-d]pyrimidin-4-yl)piperidin-4-yl)-1H-benzo[d]imidazole-5-carboxylate], the activity at 1 µM in test [1] was 60.3%; in test [2], 91.1%; in test [3] it was 47.5%; in test [4], 81.3%; in test [5] it was 103%; in test [7], 54%. The activity at 1 µM in test [8] was found to be 95.2%. The “Infectivity (percentage of GFP+ cells)” value in test [6] (100 μM, pretreated 1 h, HIV-1(NL4-3) 3 h, washed, 48 h, viable cells only, paired DMSO controls 1.76-3.37%) amounted to 0.43%. The “X4 HIV infection in screening” value in test [6] (at nontoxic dosages, […], Fig. 1C and 2) is listed as “blocked”.
